Here are results for three compounds from patent publication US11491232B2, “Lactuloside compounds and preparation and use thereof” (Fruithy Holdings Limited, priority 2017, dated 2022).

Where two headings read alike, the source gives them in different places.

Data set [1] in a line: Test on stability in mediums in vitro (buffer solutions with different pH, simulated intestinal fluid, simulated gastric fluid). The data set is classed as physicochemical. On the procedure:
At 37° C., Compound 17 was incubated in different mediums (buffer solutions with different pH, a simulated intestinal fluid containing pancreatin, and simulated gastric fluid containing pepsin).
(§1) Other typical example compounds were tested for stability according to the above method, and the test results are shown in Table 8 below.

The next data set concerns colon flora. Kind of data set: Stability in the presence of colon flora (content in colon of rat). The class given is in vitro ADME, SD rat. On the procedure:
A phosphate buffer solution with a pH of 7.0 was formulated, and then CO2 was introduced to the solution to adjust the pH to 6.8. Then, the content in colon of a male SD rat (body weight: 180-220 g) was placed in a water bath at 37° C., and added into the phosphate buffer solution with a pH of 6.8 as prepared above under the protection of N2 to a concentration of 20% (w/v). The buffer solution was kept in an oxygen-free environment. Then, the test Compound 17 was added to the buffer solution, and the solution was stirred uniformly.
Supernatant was analyzed with HPLC, where the amount of each ingredient was calculated by normalization.
Note: in the above table, “T14.148 (%)” represents the percentage of peak area of the material with a retention time of 14.148 min “T14.713 (%)” represents the percentage of peak area of the material with a retention time of 14.713 min. “T16.392 (%)” represents the percentage of peak area of the material with a retention time of 16.392 min. “T22.624 (%)” represents the percentage of peak area of the material with a retention time of 22.624 min.
as §1

Data set [2] can be described thus: Systemic pharmacokinetics (plasma) after oral administration to SD rats. The class given is in vivo.
Procedure: (§2) For the experiment animals of Group 1, Group 2 and Group 3, at each time point of 30 min, 1 h, 2 h, 3 h, 4 h, 5 h, 6 h, 8 h, and 10 h after the administration, 4 animals were randomly selected and sacrificed. The blood samples were collected, and the contents in the stomach and various segments of the intestine tract (the first half segment of the small intestine, the last half segment of the small intestine, the first third segment of the colon (including cecum), and the last two thirds segment of the colon) were weighed. […] 4 animals of Group 4 were sacrificed at the time point of 10 h. The blood samples and the contents in various segments of the gastrointestinal tract were collected as blank control.
Data set [3] concerns ulcerative colitis models of Wistar rat induced by enema with trinitrobenzenesulfonic acid (TNBS). Kind of data set: Pharmacodynamic effect of intragastric administration in ulcerative colitis models of Wistar rat induced by TNBS enema. The data set is classed as in vivo. The conditions noted are these: Wistar rats; for colon coefficient on Day 8 after modeling compared with the model control group / histopathological score of colon on Day 8 after modeling compared with the model control group / body weight change (increase) on Day 8 after modeling as compared to the model group: intragastric qd × 7, Compound 1 1.91 mg/kg; for colon coefficient on Day 8 after modeling compared with the model control group: prednisolone 1 mg/kg (FIG. 6); for histopathological score of colon on Day 8 after modeling compared with the model control group: prednisolone 1 mg/kg (FIG. 7); for body weight change (increase) on Day 8 after modeling as compared to the model group: prednisolone 1 mg/kg, only Compound 1 vs model significant (FIG. 5). On the procedure: Comparison research among therapeutic effects of Compound 1 and a commercial formulation of prednisolone (prednisolone tablet, produced by Wuhan Yuancheng Co-Creation Technology Co., Ltd.) on ulcerative colitis models of Wistar rats after intragastric administration was carried out to further evaluate the improvement in main therapeutic effect indexes of the intragastric perfusion therapy of Compound 1 and compare it with that of treatment group with equivalent moles of a commercial formulation of prednisolone, thereby providing pharmacodynamic support for further development of Compound 1.
According to the experiment, 40 male Wistar rats (180-220 grams) were purchased, and randomly divided into four groups (i.e., physiological saline control group, model control group, prednisolone group and Compound 1 group), and there were 10 animals in each group. Except the physiological saline control group, ulcerative colitis animal models were produced by once enema administration of a mixed solution of 2.5% TNBS-50% ethanol (containing 80 mg/kg TNBS) to experiment animals in other three groups in an amount of 3.2 ml/kg. For the physiological control group, physiological saline was once administered by enema in an amount of 3.2 ml/kg. At 24 h after the modeling administration, the corresponding solvent control or therapeutic drugs were administered by enema depending on animal groups (qd×7d (one dose per day, for 7 days)), and detailed grouping and administration information is as shown in Table 14 below.
During the investigation, the main indexes to be observed include: death of animals, clinical observation, body weight, colon coefficient, histopathological examination of animals, and so on. For each experiment group, on Day 8 after modeling, animals were sacrificed. Colon tissues were collected to calculate the colon coefficient (colon coefficient=colon weight (g)/animal body weight (g) * 100%).

For data set [4] the following is noted: rat, in vivo; for Concentration of prednisolone in the content, The first half segment of Small intestine / Concentration of prednisolone in the content, The last half segment of Small intestine: male, Sprague-Dawley (SD).
Procedure: as §2
Where [5] appears, read: Simulated intestinal fluid (containing pancreatin) (pH 6.8) (8 h).
[6] abbreviates: male, Sprague-Dawley (SD), rat, 1 h, pH 6.8.
[7] abbreviates: intragastric administration, FIG. 3.

`C[C@]12C=CC(=O)C=C1CC[C@@H]1[C@@H]2[C@@H](O)C[C@@]2(C)[C@H]1CC[C@]2(O)C(=O)COC1(CO)O[C@H](CO)[C@@H](O[C@@H]2O[C@H](CO)[C@H](O)[C@H](O)[C@H]2O)[C@@H]1O` (stereo partly drawn) [Compound 1, (11β)-11,17-dihydroxyl-21-{[4-O-(β-D-galactopyranosyl)-D-fructofuranosyl]oxy}pregna-1,4-diene-3,20-dione]: in data set [1] (setting [5]), the “Percentage of the example compound remaining (Composition, %)” value was 99.0% and the “Percentage of the released active drug (prednisolone, dexamethasone, budesonide, apremilast or prucalopride) (Composition, %)” value is 0.2%. Further, in data set [1] (Water (pH 1.2) (2 h)), the “Percentage of the example compound remaining (Composition, %)” value is listed as 30.4% and the “Percentage of the released active drug (prednisolone, dexamethasone, budesonide, apremilast or prucalopride) (Composition, %)” value is reported as 67.2%. Besides, in the data set with colon flora (setting [6]), the “Percentage of the example compound remaining (Composition, %)” value was determined as 22.1% and the “Percentage of the released active drug (prednisolone, dexamethasone, budesonide, apremilast or prucalopride) (Composition, %)” value is given as 39.7%. In data set [2] (setting [7]), the “plasma prednisolone Cmax as compared to free prednisolone group” value was “very low” and the “plasma prednisolone time to peak as compared to free prednisolone group” value is given as “significantly delayed”. Further, in data set [2] (male, Sprague-Dawley, rat, plasma, oral, 9.55 mg/kg intragastric, 0.5 h (only time point with detection), read-out: concentration of Compound 1 in the rat plasma), the concentration at 0.5 h was 10.4 ng/mL. Further, in data set [3] (TNBS model, intragastric qd × 7, 1.91 mg/kg), the “day after modeling on which the body weight began to rise” value was 4 days. Also, in data set [3], the “colon coefficient on Day 8 after modeling compared with the model control group” value is reported as “significantly lower than that for the model control group (p<0.05)”, the “histopathological score of colon on Day 8 after modeling compared with the model control group” value was “significantly lower than that for the model control group (p<0.05)” and the “body weight change (increase) on Day 8 after modeling as compared to the model group” value is reported as “statistically significant”. The “passage through the gastrointestinal tract of a mammal (absorption and hydrolysis)” value in data set [4] was “without being absorbed significantly by the gastrointestinal tract and hydrolyzed significantly by endogenous enzymes of a mammal host”. Moreover, in data set [4] (po), the “factor of increase of maximum concentrations (Cmax) of local prednisolone in the cecum and colon sites as compared to prednisolone group” value is given as 65-360; the “total exposure (AUC) of local prednisolone in the cecum and colon sites compared with prednisolone group” value is “much higher than the prednisolone (original form) group”.

In the case of `C[C@]12C=CC(=O)C=C1CC[C@@H]1[C@@H]2[C@@H](O)C[C@@]2(C)[C@H]1CC[C@]2(O)C(=O)CO` [Prednisolone, prednisolone], in data set [3], the “colon coefficient on Day 8 after modeling compared with the model control group” value is listed as “not statistically significant”, the “histopathological score of colon on Day 8 after modeling compared with the model control group” value was “not statistically significant” and the “body weight change (increase) on Day 8 after modeling as compared to the model group” value is “higher than that for the model group”. For the same compound, in data set [4] (0.5 h), the “Concentration of prednisolone in the content, The first half segment of Small intestine” value amounted to 16.66 ± 2.89 nmol/g and the “Concentration of prednisolone in the content, The last half segment of Small intestine” value is listed as 16.27 ± 3.34 nmol/g. Besides, the “Concentration of prednisolone in the content, The first half segment of Small intestine” value in data set [4] (1 h) is 19.20 ± 3.44 nmol/g. The “Concentration of prednisolone in the content, The last half segment of Small intestine” value in data set [4] (2 h) was determined as 19.81 ± 2.77 nmol/g. Further, in data set [4] (3 h), the “Concentration of prednisolone in the content, The first half segment of Small intestine” value amounted to 21.16 ± 2.18 nmol/g and the “Concentration of prednisolone in the content, The last half segment of Small intestine” value is listed as 20.47 ± 3.08 nmol/g. Besides, in data set [4] (4 h), the “Concentration of prednisolone in the content, The first half segment of Small intestine” value is recorded as 17.38 ± 3.04 nmol/g and the “Concentration of prednisolone in the content, The last half segment of Small intestine” value turned out to be 13.27 ± 2.09 nmol/g. In addition, in data set [4] (5 h), the “Concentration of prednisolone in the content, The first half segment of Small intestine” value amounted to 7.34 ± 1.38 nmol/g and the “Concentration of prednisolone in the content, The last half segment of Small intestine” value is 6.94 ± 1.35 nmol/g. Also, in data set [4] (6 h), the “Concentration of prednisolone in the content, The first half segment of Small intestine” value is reported as 0.36 ± 0.05 nmol/g and the “Concentration of prednisolone in the content, The last half segment of Small intestine” value is on record as 0.32 ± 0.06 nmol/g. In data set [4] (8 h), the “Concentration of prednisolone in the content, The last half segment of Small intestine” value came to 0.04 ± 0.01 nmol/g. For the same compound, in data set [4] (po, 5 mg/kg), the “Cmax value of prednisolone in the content, Stomach” value amounted to 370.53 nmol/g; the “Cmax value of prednisolone in the content, The first half segment of Small intestine” value came out at 51.92 nmol/g; the “Cmax value of prednisolone in the content, The first third segment (including cecum) of Colon” value is reported as 0.70 nmol/g; the “Cmax value of prednisolone in the content, The last half segment of Small intestine” value is 22.05 nmol/g. For the same compound, the “Cmax value of prednisolone in the content, The last two thirds segment of Colon” value in data set [4] (po, 5 mg/kg) is 0.14 nmol/g.

With `CCOc1cc([C@@H](CS(C)(=O)=O)N2C(=O)c3cccc(N(C(C)=O)C4(CO)O[C@H](CO)C(O[C@@H]5OC(CO)[C@H](O)C(O)C5O)C4O)c3C2=O)ccc1OC` (stereo partly drawn) [Compound 12, N-{2-[(S)-1-(3-ethoxy-4-methoxyphenyl)-2-(methylsulfonyl)ethyl]-1,3-dioxo-2,3-dihydro-1H-isoindol-4-yl}-N′-[4-O-(β-D-galactopyranosyl)-D-fructofuranosyl]acetamide], the “Percentage of the example compound remaining (Composition, %)” value in data set [1] (setting [5]) was 100%; in data set [1] (Water (pH 1.2) (2 h)), 20.0%; with colon flora (Content in colon (pH 6.8) (1 h)), 30.1%. Moreover, the results for the “Percentage of the released active drug (prednisolone, dexamethasone, budesonide, apremilast or prucalopride) (Composition, %)” value in data set [1] (setting [5]) and in data set [1] (Water (pH 1.2) (2 h)) were 0% and 79.8%, respectively.
